Results from US8883173B2 (priority 2007, dated 2014).
“Also recorded” adds a separate entry of the source. Square brackets hold non-standard residues; d marks the D form. Ends that are not written are not given here. NMeV = CN[C@H](C(=O)O)C(C)C

Tests used:
[1] = system: sera from Map infected animals (anti-Map antibodies); assay type: binding, bovines and goats
[2] = system: sera from Mav- or Mai-infected human patients; assay type: binding
[3] = system: sera from M. avium subsp. avium-experimentally infected mouse; experiment: ELISA with sera from Mav experimentally infected mouse; assay type: binding; conditions: FIG. 4B
[4] = system: sera from M. bovis infected bovine; assay type: binding; conditions: read at 414 nm
[5] = system: IgA, IgM, IgG1 or IgG2 antibodies in sera of Map infected animals; assay type: binding, bovines

Q: Which “recognition by sera of Map-infected animals, compared with L5P” value [1] does the source give for CCCCCCCCCCCCCCCCCCCC(=O)O [lipid moiety, eicosanoic acid, reference compound] here?
A: poorly recognized

Q: How did the “specific reaction with Map specific anti serum” value (“specific reaction” for short) [1] turn out when “AcNH-DPhe-NMeVal-Ile-Phe-Ala (Ac-[dF][NMeV]IFA) [compound 10]” was run?
A: react specifically

Q: With “AcNH-DPhe-NMeVal-Ile-Phe-Ala-OMe (Ac-[dF][NMeV]IFA-OMe; SMILES CC[C@H](C)[C@H](NC(=O)[C@H](C(C)C)N(C)C(=O)[C@@H](Cc1ccccc1)NC(C)=O)C(=O)N[C@@H](Cc1ccccc1)C(=O)N[C@@H](C)C(=O)OC) [Ac5P]” as the molecule, how does the “recognition by sera of Map-infected animals, compared with L5P” value [1] read?
A: recognized as efficiently as the L5P; also recorded: In some cases, the pentapeptide was even better recognized than the whole L5P

Q: “AcNH-DPhe-Val-Ile-Phe-Ala-OMe (Ac-[dF]VIFA-OMe; SMILES CC[C@H](C)[C@H](NC(=O)[C@@H](NC(=O)[C@@H](Cc1ccccc1)NC(C)=O)C(C)C)C(=O)N[C@@H](Cc1ccccc1)C(=O)N[C@@H](C)C(=O)OC) [compound 8]” was tested. Which “specific reaction” value [1] did it give?
A: react specifically

Q: Which results are given for “DPhe-NMeVal-Ile-Phe-Ala-OMe ([dF][NMeV]IFA-OMe) [compound 4]”?
A: antigenic response (ranking among analogues) [1]: best antigenic response; recognition by sera of Map-infected animals, compared with L5P [1]: recognized at least as efficiently; sensitivity for detection of Map-specific antibodies compared to L5P (1) [1]: higher sensitivity; specific reaction with Map specific anti serum [1]: react specifically

Q: For “LipidC20-DPhe-NMeVal-Ile-Phe-Ala [compound 9]”, which “specific reaction” value [1] is on record?
A: react specifically

Q: For “LipidC20-DPhe-NMeVal-Ile-Phe-Ala-OMe [L5P]”, which “O.D. in ELISA” value [2] is on record?
A: below 0.2

Q: What about the reactivity with sera [3] of the same molecule?
A: none was reacting

Q: And the “O.D. in ELISA” value [4]?
A: below 0.2

Q: What about the “anti-L5P IgA in sera” value [5] of the same molecule?
A: no IgA was detected

Q: What about the “anti-L5P IgG1 in sera” value [5] of the same molecule?
A: present

Q: What about the “anti-L5P IgG2 in sera” value [5] of the same molecule?
A: present

Q: And the “anti-L5P IgM in sera” value [5]?
A: present

Q: And the “OD in ELISA” value [1]?
A: above 1,5

Q: What about the “specificity compared with PPD” value [1] of the same molecule?
A: by far more specific than the PPD
